The source of these data is patent US20100209536A1, “Methods and Kits for Use in the Treatment and Prevention of Diseases or Conditions of the Immune System or Infectious Diseases” (The Brigham and Women's Hospital, Inc., priority 2006, published 2010).

Common to all, as to format: in vivo, human
The subject of experiment [1] is any wheeze in the first 2 yrs. The experiment in a line: Project Viva antioxidant study: maternal intake and any wheeze in the first 2 yrs. The following applies: for Any wheeze in the first 2 yrs, Univariate Model OR (95% CI) / Any wheeze in the first 2 yrs, Multivariable Model OR (95% CI): including supplements; for Association of total maternal intake with any wheeze in univariable models: total intakes; for Any Wheeze, Foods Only OR / Any Wheeze, Supplements Only OR: univariate; for Any Wheeze, Foods Only OR: intake from foods only; for Any Wheeze, Supplements Only OR: intake from supplements only. From the text:
(§1) Study subjects were enrolled in Project Viva, as described above. Recruitment and retention procedures have previously been published (Gillman et al., J. Pediatr. 144:240-245, 2004). We obtained information directly from participants and from medical records as detailed previously (Rifas-Shiman, Paediatr. Perinat. Epidemiol. 20:35-42, 2006). Data collected from interviews and questionnaires included demographics (infant gender, maternal marital status, and race), socioeconomic status (education and household income), and reproductive history (maternal gravidity, pre-pregnancy height and body mass index, and smoking). Questionnaires that inquired about infant health, feeding, and the home environment were administered when the child was 6 months, 1 year, and 2 years of age. Among 2,128 delivered infants in Project Viva, we excluded 228 participants because of missing first and second trimester diet assessment data and an additional 37 participants with a gestation of less than 34 completed weeks.
(§2) We assessed maternal diet using semi-quantitative food-frequency questionnaires (FFQ) validated for use during pregnancy (Fawzi et al., Ann. Epidemiol. 14:754-762, 2004), and used in several of our previous studies of maternal diet and offspring outcomes (Oken et al., Am. J. Epidemiol. 160:774-783, 2004; Huh et al., Int. J. Epidemiol. 34:378-384, 2005; Gillman et al., Circulation 110:1990-1995, 2004). As noted above, the FFQ used at the 1st visit reflected intakes in the 1st trimester; the time referent was “during this pregnancy,” that is from the date of the last menstrual period until the assessment, at an average of about 10 weeks gestation. To assess vitamin and supplement intake during the 1st trimester, we administered a separate interview that queried dose, duration, and brand/type of multivitamin, prescribed prenatal vitamins, and supplements. Also as noted above, the FFQ used at the 2nd visit (26 to 28 weeks of gestation) reflected intakes during the 2nd trimester; the time referent was “during the past 3 months.” The 2nd trimester instrument was the same as that for the 1st trimester except that we assessed use of vitamins/supplements as part of the self-completed FFQ.
(§3) To calculate intake of nutrients, we again used the Harvard nutrient composition database, which contains food composition values from the U.S. Department of Agriculture, supplemented by other data sources (U.S. Department of Agriculture ARS. USDA National Nutrient Database for Standard Reference, Release 14, 5R14; 2001). All nutrients were adjusted for total energy intake using the nutrient residuals method (Willett, Am. J. Clin. Nutr. 45:354-360, 1987). Mean nutrient intakes from the 1st and 2nd trimesters were used as the exposure in the analyses. If a participant only completed one FFQ, then nutrients calculated from that questionnaire were taken as the exposure of interest. One thousand one hundred and thirty-five (88.0%) of the 1,290 participants completed both FFQs, 96 (7.4%) completed the first trimester FFQ only, and 59 (4.6%) completed the second trimester FFQ only.
(§4) We ascertained the wheeze outcomes from questions from the First Year and Second Year Questionnaires: “since your child was born/since your child was […], has he/she ever had wheezing (or whistiling in the chest)?” “Any wheeze” was defined as a positive response to the question at either the first or second year questionnaire. “Recurrent wheeze” was defined as positive responses to the questions in both the first and second year questionnaires. […] “Respiratory infections” was defined as positive responses to one of three questions: “since your child was born/12 months old, have you been told by a health care professional (such as a doctor, physician assistant, or nurse practitioner) that your child has: (a) bronchiolitis; (b) pneumonia; (c) bronchitis, croup, or any other respiratory infection?” on either the first or second year questionnaires. […]

The subject of experiment [2] is recurrent wheeze in the first 2 yrs. The experiment is described as follows: Project Viva antioxidant study: maternal intake and recurrent wheeze in the first 2 yrs. The following applies: for Recurrent wheeze in the first 2 yrs, Multivariable Model OR (95% CI) / Recurrent wheeze in the first 2 yrs, Univariate Model OR (95% CI): including supplements; for Recurrent Wheeze, Foods Only OR / Recurrent Wheeze, Supplements Only OR: univariate; for Recurrent Wheeze, Foods Only OR: intake from foods only; for Recurrent Wheeze, Supplements Only OR: intake from supplements only.
Description: as §1, §2, §3, §4

Experiment [3] concerns respiratory infections in the 2-year old children. The experiment in a line: Project Viva antioxidant study: maternal intake and respiratory infections in 2-year old children.
Description: as §1
We assessed maternal diet using semi-quantitative food-frequency questionnaires (FFQ) validated for use during pregnancy (Fawzi et al., Ann. Epidemiol. 14:754-762, 2004), and used in several of our previous studies of maternal diet and offspring outcomes (Oken et al., Am. J. Epidemiol. 160:774-783, 2004; Huh et al., Int. J. Epidemiol. 34:378-384, 2005; Gillman et al., Circulation 110:1990-1995, 2004). As noted above, the FFQ used at the 1st visit reflected intakes in the 1st trimester; the time referent was “during this pregnancy,” that is from the date of the last menstrual period until the assessment, at an average of about 10 weeks gestation. […] Also as noted above, the FFQ used at the 2nd visit (26 to 28 weeks of gestation) reflected intakes during the 2nd trimester; the time referent was “during the past 3 months.” The 2nd trimester instrument was the same as that for the 1st trimester except that we assessed use of vitamins/supplements as part of the self-completed FFQ. […]

Where [4] appears, read: 2nd vs 1st (lowest) quartile of maternal intake, calorie adjusted, n = 1,161.
Setting [5] is: 2nd vs 1st (lowest) quartile of maternal intake.
[6] abbreviates: 3rd vs 1st (lowest) quartile of maternal intake.
[7] abbreviates: 4th (highest) vs 1st (lowest) quartile of maternal intake.
The mark [8] stands for this setting: 2nd vs 1st (lowest) quartile of maternal intake, n = 1,038.
Setting [9] is: 4th (highest) vs 1st (lowest) quartile of maternal intake, listed as vitamin E.
[10] abbreviates: 4th (highest) vs 1st (lowest) quartile.

`O=C1O[C@H]([C@@H](O)CO)C(O)=C1O` [Vitamin C, ascorbic acid]: the “Any wheeze in the first 2 yrs, Univariate Model OR (95% CI)” value in experiment [1] (setting [4]) is 0.82 (0.58, 1.15); in experiment [1] (setting [6]), 0.65 (0.46, 0.93)^5; in experiment [1] (setting [7]) it was 0.67 (0.47, 0.94)^5. Also, the “Any wheeze in the first 2 yrs, Multivariable Model OR (95% CI)” value in experiment [1] (setting [5]) is listed as 0.93 (0.65, 1.35); in experiment [1] (setting [6]), 0.84 (0.58, 1.22); in experiment [1] (setting [7]), 0.79 (0.54, 1.15). Besides, in experiment [1], the “Association of total maternal intake with any wheeze in univariable models” value is “associated with lower risks”. The “Recurrent wheeze in the first 2 yrs, Multivariable Model OR (95% CI)” value was 1.05 (0.62, 1.77) in experiment [2] (setting [5]); 1.04 (0.60, 1.78) in experiment [2] (setting [6]); 0.75 (0.41, 1.36) in experiment [2] (setting [7]). The “Recurrent wheeze in the first 2 yrs, Univariate Model OR (95% CI)” value in experiment [2] (setting [8]) is on record as 1.02 (0.63, 1.65); in experiment [2] (setting [6]), 0.85 (0.52, 1.40); in experiment [2] (setting [7]), 0.56 (0.32, 0.97)^5. The “Association of total maternal intake with respiratory infections in the children” value in experiment [3] is on record as “not associated”.
In the case of vitamin E, the “Any wheeze in the first 2 yrs, Univariate Model OR (95% CI)” value is recorded as 0.71 (0.51, 1.01) in experiment [1] (setting [4]); 0.67 (0.48, 0.95)^5 in experiment [1] (setting [6]); 0.52 (0.36, 0.74)^5 in experiment [1] (setting [7]). The “Any wheeze in the first 2 yrs, Multivariable Model OR (95% CI)” value in experiment [1] (setting [5]) was 0.90 (0.62, 1.31); in experiment [1] (setting [6]), 0.84 (0.58, 1.22); in experiment [1] (setting [7]), 0.70 (0.48, 1.03); in experiment [1] (setting [9]), 0.70. Further, the figures for the “Any Wheeze, Foods Only OR” value in experiment [1] (2nd vs 1st (lowest) quartile), in experiment [1] (3rd vs 1st (lowest) quartile) and in experiment [1] (setting [10]) were 0.75, 0.67 and 0.69, respectively. For the same compound, the “Any Wheeze, Supplements Only OR” value in experiment [1] (2nd vs 1st (lowest) quartile) is given as 0.86; in experiment [1] (3rd vs 1st (lowest) quartile), 0.70; in experiment [1] (setting [10]), 0.63. Besides, in experiment [1], the “Association of total maternal intake with any wheeze in univariable models” value is on record as “associated with lower risks”. Further, the “Recurrent wheeze in the first 2 yrs, Multivariable Model OR (95% CI)” value in experiment [2] (setting [5]) is 0.79 (0.47, 1.34); in experiment [2] (setting [6]), 0.90 (0.54, 1.52); in experiment [2] (setting [7]), 0.49 (0.27, 0.90)^5; in experiment [2] (setting [9]) it was 0.49. For the same compound, the “Recurrent wheeze in the first 2 yrs, Univariate Model OR (95% CI)” value in experiment [2] (setting [8]) was 0.60 (0.37, 0.98); in experiment [2] (setting [6]) it was 0.68 (0.43, 1.10); in experiment [2] (setting [7]) it was 0.36 (0.20, 0.62)^5. The “Recurrent Wheeze, Foods Only OR” value in experiment [2] (2nd vs 1st (lowest) quartile) amounted to 0.66; in experiment [2] (3rd vs 1st (lowest) quartile), 0.58; in experiment [2] (setting [10]), 0.61. Moreover, the “Recurrent Wheeze, Supplements Only OR” value stood at 0.83 in experiment [2] (2nd vs 1st (lowest) quartile), 0.50 in experiment [2] (3rd vs 1st (lowest) quartile) and 0.56 in experiment [2] (setting [10]). In addition, the “Association of total maternal intake with respiratory infections in the children” value in experiment [3] is “not associated”.
